Reference: publication PMC6738068 (British Journal of Cancer, 2019)
Values joined by “and” are separate entries in the source; they are usually repeats but may differ in a detail not shown here. Identical values can stand only once. “Also recorded” adds a separate entry of the source. Like-named read-outs stand apart in the source and are kept apart here.

Columns and labels:
[1] = tested on: advanced solid tumours; experiment: Phase 1 efficacy assessment (RECIST v1.1); format: in vivo, human
Procedure: Diagnostic imaging response assessments (computed tomography or magnetic resonance imaging) were performed at baseline and at the end of every two cycles or as clinically indicated. All patients who had at least one post-baseline radiographic assessment of target, non-target, and new lesions constituted the efficacy-evaluable population. Patients were evaluated for complete response (CR), partial response (PR), stable disease (SD) ≥6 months, or progressive disease as determined by RECIST v1.1.[17] Objective response rate (ORR = CR + PR) and clinical benefit rate (CBR = CR + PR + SD ≥ 6 months) were evaluated. Data cut-off for the efficacy-evaluable population was January 21, 2019.

[2] = tested on: PLK1; design: method as in printed; settings: preclinical, ref not given; cited from earlier work
[3] = tested on: patients with advanced solid tumours
Description: A standard 3+3 dose-escalation scheme was used to identify the maximally tolerated dose (MTD) and RP2D.
Patients without evidence of high-grade neutropenia during this run-in period resumed daily dosing in standard 28-day cycles.
Select haematologic DLT included febrile neutropenia grade ≥3 and/or neutropenia grade ≥3 associated with infection or asymptomatic neutropenia grade ≥3 that persisted for >7 days. Use of haematopoietic growth factors (e.g. G-CSF, erythropoietin) in Cycle 1 was not permitted unless a DLT occurred.
The RP2D was based on the MTD established during dose escalation together with a comprehensive review of toxicities, PKs, and efficacy outcomes.
Dose escalations occurred in 100% increments for individual dosing cohorts up to 32 mg/day. Subsequent dose escalations continued in increments not exceeding 50%, depending on toxicities experienced, and with the approval of local Investigators and the external Medical Monitor.
Hematologic DLTs were defined as drug-related anemia grade ≥3; febrile neutropenia grade ≥3, and/or neutropenia grade ≥3 associated with infection; asymptomatic neutropenia grade ≥3 that persisted for >7 days; asymptomatic thrombocytopenia grade ≥3 that persisted for >7 days following treatment interruption; grade 3 thrombocytopenia associated with bleeding; or grade 4 thrombocytopenia.
Dose escalation decisions were made following the completion of Cycle 1 for all patients enrolled in a given dose level, taking into consideration adverse events (AE) and pharmacokinetic results.

[4] = tested on: PLK3; design: method as in printed; settings: preclinical, ref not given; cited from earlier work
[5] = tested on: Abl [T315I]; design: method as in printed; settings: preclinical, ref not given; cited from earlier work
[6] = tested on: TrkB; design: method as in printed; settings: preclinical, ref not given; cited from earlier work
[7] = tested on: Tie2; design: method as in printed; settings: preclinical, ref not given; cited from earlier work
[8] = tested on: cytochrome P450 (CYP) enzyme 1A2; design: method as in printed; settings: preclinical testing, ref not given; cited from earlier work
[9] = tested on: CYP1A2; design: method as in printed; settings: preclinical testing, ref not given; cited from earlier work
[10] = tested on: CYP3A4; design: method as in printed; settings: preclinical testing, ref not given; cited from earlier work
[11] = tested on: P-glycoprotein; design: method as in printed; settings: preclinical testing, ref not given; cited from earlier work
[12] = tested on: BCRP; design: method as in printed; settings: preclinical testing, ref not given; cited from earlier work
[13] = tested on: OCT2; design: method as in printed; settings: preclinical testing, ref not given; cited from earlier work
[14] = tested on: OATP1B3; design: method as in printed; settings: preclinical testing, ref not given; cited from earlier work
[15] = tested on: dogs; design: method as in printed; settings: toxicology studies, ref not given; cited from earlier work
[16] = efficacy-evaluable population (n = 49)
[17] = patient with AKT1 E17K mutant endometrioid endometrial carcinoma
[18] = patient with MSS endometrial carcinoma
[19] = oral daily 72 mg (n = 6; one patient removed, not DLT evaluable)

For `COc1ccc2c(c1)[C@]1(C[C@H]1c1ccc3c(/C=C/c4ccc(CN5C[C@@H](C)O[C@@H](C)C5)cc4)n[nH]c3c1)C(=O)N2` [CFI-400945], which “Progressive disease as best response” value ([1]; 35/49 patients) is on record?
Its value is 71%.

And the “patients with SD ≥6 months” value ([1]; RECIST v1.1)?
The value was “two and 2/13”.

What about the “partial responses (PR)” value ([1]; adenoid cystic carcinoma, 48 mg) of the same compound?
Its value is “One PR”.

And the ORR ([1]; efficacy-evaluable cohort, 1/49)?
The ORR was 2%.

What about the CBR ([1]; efficacy-evaluable cohort, 3/49) of the same compound?
Its CBR is 6%.

And the “complete responses (CR)” value [1, 16]?
The value was “No CRs”.

What about the “duration on study, range” value [1, 16] of the same compound?
The value was 0.1–40.7 months.

What about the “median duration on study” value [1, 16] of the same compound?
Its value is 1.9 months.

What about the median progression-free survival [1, 16] of the same compound?
Its median progression-free survival is 3.2 months.

And the “patients with SD as best response” value [1, 16]?
Its value is 13 patients.

And the “progression-free survival, 95% confidence interval” value [1, 16]?
The value was 1.6–4.9 months.

And the “lowest dose with evidence of antitumour activity” value ([1]; in vivo)?
Its value is 48 mg.

What about the target lesion reduction [1, 17] of the same compound?
The target lesion reduction was −19%.

What about the “time on study with SD” value [1, 17] of the same compound?
The value was 6 cycles.

What about the time on study ([1]; patient with KRAS-mutant, MSS colorectal cancer, 48 mg) of the same compound?
The time on study was 12 cycles.

And the “duration of SD” value [1, 18]?
Its value is 8 cycles.

And the “reduction in target lesions” value [1, 18]?
The value was 3.7%.

What about the “duration of PR / time on trial, ongoing at data cut-off” value ([1]; patient with adenoid cystic carcinoma, 48 mg) of the same compound?
Its value is 45 cycles.

And the IC50 [2]?
Its IC50 is greater than 50000 nM.

And the DLT events ([3]; 64 mg dose escalation, 6 patients)?
The DLT events was “no DLT events”.

What about the “patients with a DLT event” value ([3]; 64 mg dose level, escalation plus expansion) of the same compound?
The value was 1/15.

And the “DLT event in dose expansion” value ([3]; 64 mg expansion, Cycle 1 Day 15)?
The value was “One patient experienced grade 4 febrile neutropenia”.

And the tolerability ([3]; 64 mg, continuous daily dosing)?
The tolerability was “well tolerated; also recorded: tolerable”.

And the DLT events ([3]; 72 mg (7 total), Cycle 1)?
The DLT events was “Two patients experienced DLT events”.

What about the tolerability ([3]; 96 mg daily) of the same compound?
Its tolerability is “intolerable”.

And the DLT events ([3]; 96 mg, Cycle 1)?
Its DLT events is “one DLT (grade 3 febrile neutropenia)”.

And the “Total number of patients with DLT, all dosages” value ([3]; 3-96 mg (n = 48))?
Its value is 4.

What about the “DLT description, grade 3” value ([3]; all dose levels (n = 48)) of the same compound?
The value was “Neutropenia, febrile neutropenia”.

And the “DLT description, grade 4” value ([3]; all dose levels (n = 48))?
The value was “Febrile neutropenia, lipase elevated”.

And the “recommended phase 2 dose (RP2D)” value ([3]; continuous daily oral dosing)?
The value was 64 mg.

What about the “principal DLT” value ([3]; continuous dosing schedule) of the same compound?
Its value is “Neutropenia”.

And the “Total number of patients with DLT at each dosage” value (from here on “Total number … at each dosage”) ([3]; oral daily 3 mg (n = 3))?
Its value is 0.

And the “patients with DLT, grade 1” value ([3]; oral daily 3 mg (n = 3))?
Its value is 0.

What about the “patients with DLT, grade 2” value ([3]; oral daily 3 mg (n = 3)) of the same compound?
The value was 0.

What about the “patients with DLT, grade 3, number (%)” value ([3]; oral daily 3 mg (n = 3)) of the same compound?
The value was 0.

And the “patients with DLT, grade 4, number (%)” value ([3]; oral daily 3 mg (n = 3))?
Its value is 0.

What about the “patients with DLT, grade 5” value ([3]; oral daily 3 mg (n = 3)) of the same compound?
The value was 0.

What about the “Total number … at each dosage” value ([3]; oral daily 6 mg (n = 3)) of the same compound?
The value was 0.

What about the “patients with DLT, grade 1” value ([3]; oral daily 6 mg (n = 3)) of the same compound?
The value was 0.

And the “patients with DLT, grade 2” value ([3]; oral daily 6 mg (n = 3))?
Its value is 0.

And the “patients with DLT, grade 3, number (%)” value ([3]; oral daily 6 mg (n = 3))?
Its value is 0.

And the “patients with DLT, grade 4, number (%)” value ([3]; oral daily 6 mg (n = 3))?
Its value is 0.

And the “patients with DLT, grade 5” value ([3]; oral daily 6 mg (n = 3))?
Its value is 0.

And the “Total number … at each dosage” value ([3]; oral daily 11 mg (n = 3))?
The value was 0.

What about the “patients with DLT, grade 1” value ([3]; oral daily 11 mg (n = 3)) of the same compound?
The value was 0.

And the “patients with DLT, grade 2” value ([3]; oral daily 11 mg (n = 3))?
The value was 0.

What about the “patients with DLT, grade 3, number (%)” value ([3]; oral daily 11 mg (n = 3)) of the same compound?
The value was 0.

And the “patients with DLT, grade 4, number (%)” value ([3]; oral daily 11 mg (n = 3))?
The value was 0.

And the “patients with DLT, grade 5” value ([3]; oral daily 11 mg (n = 3))?
The value was 0.

And the “Total number … at each dosage” value ([3]; oral daily 16 mg (n = 3))?
Its value is 0.

And the “patients with DLT, grade 1” value ([3]; oral daily 16 mg (n = 3))?
Its value is 0.

What about the “patients with DLT, grade 2” value ([3]; oral daily 16 mg (n = 3)) of the same compound?
The value was 0.

What about the “patients with DLT, grade 3, number (%)” value ([3]; oral daily 16 mg (n = 3)) of the same compound?
The value was 0.

What about the “patients with DLT, grade 4, number (%)” value ([3]; oral daily 16 mg (n = 3)) of the same compound?
Its value is 0.

And the “patients with DLT, grade 5” value ([3]; oral daily 16 mg (n = 3))?
The value was 0.

What about the “Total number … at each dosage” value ([3]; oral daily 24 mg (n = 3)) of the same compound?
The value was 0.

What about the “patients with DLT, grade 1” value ([3]; oral daily 24 mg (n = 3)) of the same compound?
The value was 0.

And the “patients with DLT, grade 2” value ([3]; oral daily 24 mg (n = 3))?
The value was 0.

What about the “patients with DLT, grade 3, number (%)” value ([3]; oral daily 24 mg (n = 3)) of the same compound?
The value was 0.

What about the “patients with DLT, grade 4, number (%)” value ([3]; oral daily 24 mg (n = 3)) of the same compound?
Its value is 0.

And the “patients with DLT, grade 5” value ([3]; oral daily 24 mg (n = 3))?
The value was 0.

What about the “Total number … at each dosage” value ([3]; oral daily 32 mg (n = 3)) of the same compound?
Its value is 0.

What about the “patients with DLT, grade 1” value ([3]; oral daily 32 mg (n = 3)) of the same compound?
The value was 0.

And the “patients with DLT, grade 2” value ([3]; oral daily 32 mg (n = 3))?
Its value is 0.

What about the “patients with DLT, grade 3, number (%)” value ([3]; oral daily 32 mg (n = 3)) of the same compound?
The value was 0.

What about the “patients with DLT, grade 4, number (%)” value ([3]; oral daily 32 mg (n = 3)) of the same compound?
Its value is 0.

And the “patients with DLT, grade 5” value ([3]; oral daily 32 mg (n = 3))?
Its value is 0.

What about the “Total number … at each dosage” value ([3]; oral daily 48 mg (n = 3)) of the same compound?
Its value is 0.

And the “patients with DLT, grade 1” value ([3]; oral daily 48 mg (n = 3))?
The value was 0.

And the “patients with DLT, grade 2” value ([3]; oral daily 48 mg (n = 3))?
The value was 0.

What about the “patients with DLT, grade 3, number (%)” value ([3]; oral daily 48 mg (n = 3)) of the same compound?
The value was 0.

What about the “patients with DLT, grade 4, number (%)” value ([3]; oral daily 48 mg (n = 3)) of the same compound?
Its value is 0.

What about the “patients with DLT, grade 5” value ([3]; oral daily 48 mg (n = 3)) of the same compound?
The value was 0.

And the “Total number … at each dosage” value ([3]; oral daily 64 mg (n = 15))?
The value was 1.

And the “patients with DLT, grade 1” value ([3]; oral daily 64 mg (n = 15))?
Its value is 0.

What about the “patients with DLT, grade 2” value ([3]; oral daily 64 mg (n = 15)) of the same compound?
The value was 0.

And the “patients with DLT, grade 3, number (%)” value ([3]; oral daily 64 mg (n = 15))?
Its value is 0.

What about the “patients with DLT, grade 4, number (%)” value ([3]; oral daily 64 mg (n = 15)) of the same compound?
Its value is 1 (6.7).

What about the “patients with DLT, grade 5” value ([3]; oral daily 64 mg (n = 15)) of the same compound?
Its value is 0.

And the “Total number … at each dosage” value [3, 19]?
The value was 2.

What about the “patients with DLT, grade 1” value [3, 19] of the same compound?
Its value is 0.

And the “patients with DLT, grade 2” value [3, 19]?
Its value is 0.

What about the “patients with DLT, grade 3, number (%)” value [3, 19] of the same compound?
Its value is 1 (16.7).

What about the “patients with DLT, grade 4, number (%)” value [3, 19] of the same compound?
The value was 1 (16.7).

And the “patients with DLT, grade 5” value [3, 19]?
The value was 0.

And the “Total number … at each dosage” value ([3]; oral daily 96 mg (n = 6))?
The value was 1.

And the “patients with DLT, grade 1” value ([3]; oral daily 96 mg (n = 6))?
The value was 0.

What about the “patients with DLT, grade 2” value ([3]; oral daily 96 mg (n = 6)) of the same compound?
Its value is 0.

What about the “patients with DLT, grade 3, number (%)” value ([3]; oral daily 96 mg (n = 6)) of the same compound?
Its value is 1 (16.7).

What about the “patients with DLT, grade 4, number (%)” value ([3]; oral daily 96 mg (n = 6)) of the same compound?
The value was 0.

What about the “patients with DLT, grade 5” value ([3]; oral daily 96 mg (n = 6)) of the same compound?
The value was 0.

And the IC50 [4]?
The IC50 was greater than 50000 nM.

What about the IC50 [5] of the same compound?
Its IC50 is less than 100 nM.

And the IC50 [6]?
The IC50 was less than 100 nM.

And the IC50 [7]?
The IC50 was less than 100 nM.

And the “induction of CYP1A2” value [8]?
The value was “inducer”.

What about the “time-dependent inhibition of CYP1A2” value [9] of the same compound?
Its value is “time-dependent inhibitor”.

And the “time-dependent inhibition of CYP3A4” value [10]?
The value was “time-dependent inhibitor”.

What about the “inhibition of P-glycoprotein” value [11] of the same compound?
The value was “inhibitor”.

And the “inhibition of BCRP” value [12]?
The value was “inhibitor”.

And the “inhibition of OCT2” value [13]?
Its value is “inhibitor”.

What about the “inhibition of OATP1B3” value [14] of the same compound?
The value was “inhibitor”.

What about the primary toxicities [15] of the same compound?
The primary toxicities was “haematopoietic effects (myeloid suppression, bone marrow hypocellularity)”.
